Assay results: the supplement of paper PMC6045584
± gives the standard deviation of the averaged measurements.

What follows are test systems tested with C[C@]1(O)C[C@@H](c2nc(-c3ccc4ccc(-c5ccccc5)nc4c3)c3c(N)nccn32)C1 [OSI-906] (assay: surviving fraction relative to DMSO-only wells; higher = less growth inhibition). Details: 50 nM; exposure time: 5 days.
Method in brief: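 For each tumour cell line, log-phase cells were put into 384-well plates at 250–500 cells per well, then after 24 hours exposed continuously for five days to inhibitors at 0.5, 1, 5, 10, 50, 100, 500 and 1000 nM. Viability was assessed by CellTiter-Glo luminescence, with surviving fraction expressed relative to the median of DMSO-only wells. Lines were screened three times and retained only if replicate Pearson r exceeded 0.7 and median Z' exceeded 0.3.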

| Test System | surviving fraction |
| --- | --- |
| CADOES1 SOFT TISSUE | 0.847 ± 0.14 |
| SAOS2 BONE | 1.06 ± 0.018 |
| MDAMB436 BREAST | 0.948 ± 0.11 |
| 93VU HEADNECK | 0.974 ± 0.069 |
| KPD BONE | 0.796 ± 0.018 |
| SYO1 SYNOVIAL | 0.838 ± 0.055 |
| BT20 BREAST | 1 ± 0.031 |
| SUM44 BREAST | 1.01 ± 0.17 |
| CAL120 BREAST | 0.901 ± 0.04 |
| CHLA90 AUTONOMIC GANGLIA | 0.832 ± 0.059 |
| HCC1806 BREAST | 0.962 ± 0.077 |
| HCC78 LUNG | 0.801 ± 0.15 |
| MFM223 BREAST | 1.05 ± 0.095 |
| SG43 HEADNECK | 0.695 ± 0.051 |
| HOS BONE | 0.965 ± 0.02 |
| MDAMB468 BREAST | 1.06 ± 0.087 |

| Test System | surviving fraction |
| --- | --- |
| SG27 HEADNECK | 1 ± 0.054 |
| ZR751 BREAST | 0.819 ± 0.091 |
| HSSYII SYNOVIAL | 0.814 ± 0.026 |
| MG63 BONE | 0.971 ± 0.03 |
| HS57T BREAST | 0.934 ± 0.032 |
| SUM159 BREAST | 0.977 ± 0.013 |
| HCC1395 BREAST | 1.04 ± 0.014 |
| SUM149.B1*.S BREAST | 0.974 ± 0.037 |
| MDAMB453 BREAST | 1.06 ± 0.051 |
| SCC90 HEADNECK | 1.03 ± 0.098 |
| HMLE3 BREAST | 0.875 ± 0.047 |
| HCC70 BREAST | 1.04 ± 0.018 |
| LNCAP PROSTATE | 0.991 ± 0.12 |
| HCT15 LARGE INTESTINE | 0.929 ± 0.061 |
| MHM BONE | 0.91 ± 0.05 |
| VCAP PROSTATE | 0.942 ± 0.16 |

Same assay, conditions: 100 nM; exposure time: 5 days

| Test System | surviving fraction |
| --- | --- |
| CADOES1 SOFT TISSUE | 0.886 ± 0.1 |
| SAOS2 BONE | 0.877 ± 0.066 |
| MDAMB436 BREAST | 0.89 ± 0.068 |
| 93VU HEADNECK | 0.848 ± 0.014 |
| KPD BONE | 0.557 ± 0.021 |
| SYO1 SYNOVIAL | 0.897 ± 0.033 |
| BT20 BREAST | 1.05 ± 0.095 |
| SUM44 BREAST | 0.965 ± 0.14 |
| CAL120 BREAST | 0.9 ± 0.066 |
| CHLA90 AUTONOMIC GANGLIA | 0.792 ± 0.084 |
| HCC1806 BREAST | 1.07 ± 0.064 |
| HCC78 LUNG | 0.831 ± 0.13 |
| MFM223 BREAST | 1.02 ± 0.088 |
| SG43 HEADNECK | 0.665 ± 0.06 |
| HOS BONE | 0.963 ± 0.013 |
| MDAMB468 BREAST | 1.03 ± 0.036 |

| Test System | surviving fraction |
| --- | --- |
| SG27 HEADNECK | 0.946 ± 0.044 |
| ZR751 BREAST | 0.795 ± 0.076 |
| HSSYII SYNOVIAL | 0.746 ± 0.04 |
| MG63 BONE | 0.943 ± 0.018 |
| HS57T BREAST | 0.881 ± 0.023 |
| SUM159 BREAST | 0.95 ± 0.021 |
| HCC1395 BREAST | 1.12 ± 0.13 |
| SUM149.B1*.S BREAST | 0.947 ± 0.004 |
| MDAMB453 BREAST | 1.04 ± 0.014 |
| SCC90 HEADNECK | 1.02 ± 0.027 |
| HMLE3 BREAST | 0.901 ± 0.079 |
| HCC70 BREAST | 1.08 ± 0.017 |
| LNCAP PROSTATE | 1.05 ± 0.1 |
| HCT15 LARGE INTESTINE | 0.918 ± 0.023 |
| MHM BONE | 0.872 ± 0.013 |
| VCAP PROSTATE | 0.83 ± 0.064 |

Same assay, conditions: 500 nM; exposure time: 5 days

| Test System | surviving fraction |
| --- | --- |
| CADOES1 SOFT TISSUE | 0.871 ± 0.059 |
| SAOS2 BONE | 0.594 ± 0.016 |
| MDAMB436 BREAST | 0.985 ± 0.15 |
| 93VU HEADNECK | 0.711 ± 0.021 |
| KPD BONE | 0.112 ± 0.0049 |
| SYO1 SYNOVIAL | 0.897 ± 0.034 |
| BT20 BREAST | 1.23 ± 0.05 |
| SUM44 BREAST | 0.887 ± 0.18 |
| CAL120 BREAST | 0.895 ± 0.046 |
| CHLA90 AUTONOMIC GANGLIA | 0.78 ± 0.056 |
| HCC1806 BREAST | 0.883 ± 0.04 |
| HCC78 LUNG | 0.764 ± 0.059 |
| MFM223 BREAST | 1.09 ± 0.013 |
| SG43 HEADNECK | 0.697 ± 0.021 |
| HOS BONE | 0.901 ± 0.013 |
| MDAMB468 BREAST | 0.851 ± 0.09 |

| Test System | surviving fraction |
| --- | --- |
| SG27 HEADNECK | 0.807 ± 0.086 |
| ZR751 BREAST | 0.634 ± 0.08 |
| HSSYII SYNOVIAL | 0.673 ± 0.03 |
| MG63 BONE | 0.896 ± 0.017 |
| HS57T BREAST | 0.915 ± 0.047 |
| SUM159 BREAST | 0.953 ± 0.012 |
| HCC1395 BREAST | 0.847 ± 0.14 |
| SUM149.B1*.S BREAST | 0.943 ± 0.032 |
| MDAMB453 BREAST | 1.02 ± 0.042 |
| SCC90 HEADNECK | 0.971 ± 0.019 |
| HMLE3 BREAST | 0.783 ± 0.035 |
| HCC70 BREAST | 1 ± 0.053 |
| LNCAP PROSTATE | 1.04 ± 0.032 |
| HCT15 LARGE INTESTINE | 0.911 ± 0.073 |
| MHM BONE | 0.78 ± 0.022 |
| VCAP PROSTATE | 0.399 ± 0.046 |

Same assay, conditions: 1000 nM; exposure time: 5 days

| Test System | surviving fraction |
| --- | --- |
| CADOES1 SOFT TISSUE | 0.962 ± 0.023 |
| SAOS2 BONE | 0.522 ± 0.057 |
| MDAMB436 BREAST | 0.855 ± 0.12 |
| 93VU HEADNECK | 0.724 ± 0.23 |
| KPD BONE | 0.081 ± 0.019 |
| SYO1 SYNOVIAL | 0.873 ± 0.016 |
| BT20 BREAST | 1.28 ± 0.04 |
| SUM44 BREAST | 0.862 ± 0.13 |
| CAL120 BREAST | 0.893 ± 0.058 |
| CHLA90 AUTONOMIC GANGLIA | 0.725 ± 0.082 |
| HCC1806 BREAST | 0.826 ± 0.036 |
| HCC78 LUNG | 0.842 ± 0.12 |
| MFM223 BREAST | 1.04 ± 0.017 |
| SG43 HEADNECK | 0.614 ± 0.021 |
| HOS BONE | 0.88 ± 0.031 |
| MDAMB468 BREAST | 0.846 ± 0.019 |

| Test System | surviving fraction |
| --- | --- |
| SG27 HEADNECK | 0.617 ± 0.069 |
| ZR751 BREAST | 0.462 ± 0.022 |
| HSSYII SYNOVIAL | 0.656 ± 0.026 |
| MG63 BONE | 0.9223 ± 0.0068 |
| HS57T BREAST | 0.826 ± 0.082 |
| SUM159 BREAST | 0.927 ± 0.016 |
| HCC1395 BREAST | 0.986 ± 0.043 |
| SUM149.B1*.S BREAST | 0.888 ± 0.057 |
| MDAMB453 BREAST | 0.98 ± 0.035 |
| SCC90 HEADNECK | 0.981 ± 0.078 |
| HMLE3 BREAST | 0.724 ± 0.12 |
| HCC70 BREAST | 0.924 ± 0.11 |
| LNCAP PROSTATE | 1.06 ± 0.026 |
| HCT15 LARGE INTESTINE | 0.921 ± 0.04 |
| MHM BONE | 0.721 ± 0.018 |
| VCAP PROSTATE | 0.188 ± 0.029 |
